Reference: patent US20090092631A1, “GLYCOSYLATED SPECIFICITY EXCHANGERS THAT INDUCE AN ANTIBODY DEPENDENT CELLULAR CYTOTOXICITY (ADCC) RESPONSE” (priority 2007, published 2009)

System: human Gal-alpha1,3-Gal-specific antibodies
Test: Glycosylated peptide competitive assay on Gal-BSA coated plates with human sera IB72
Format: binding
Conditions: mixed with human sera, positive control
Description: To further evaluate the ability of the glycosylated specificity exchangers to bind to a pathogen, a glycosylated peptide competitive assay was performed using the most reactive human sera (IB72). In brief, Gal-alpha-1,3-Gal-labeled bovine serum albumin (Gal-BSA) was coated onto 96-well microplates in sodium carbonate buffer (pH: 9.6) at +4° C. overnight. Dilutions of human sera and dilutions of glyco-peptides (glycosylated HIV-specific ligand/receptor specificity exchangers or Gal-BSA) or non-glycosylated peptides (HIV-specific ligand/receptor specificity exchangers or BSA) were preincubated in phosphate-buffered saline (PBS) containing 1% bovine albumin, 2% goat serum and 0.05% Tween 20 at 37° C. for 1 h. The mixture was then added to the coated plates and incubated at 37° C. for 1 h, then washed 3 times with phosphate-buffered saline (PBS) containing 0.05% Tween 20 (pH: 7.4).
Bound antibodies were indicated with goat anti-human polyvalent Ig, conjugated with alkaline phosphatase. The plates were incubated and washed as described above. Plates were developed with phosphatase substrate at room temperature for 30 min, stopped with 1 M NaOH. Optical density (OD) at 405 nm/650 nm was determined to quantify the inhibition. […] Thus, specificity exchangers that bind Gal-alpha1,3-Gal-specific antibodies had been generated. […]

Gal-alpha-1,3-Gal-labeled bovine serum albumin [Gal-BSA]
inhibition of human antibody binding to Gal-BSA: 100%
